From paper PMC9404985, “Development of Dicationic Bisguanidine-Arylfuran Derivatives as Potent Agents against Gram-Negative Bacteria” (Antibiotics, 2022)
pEC50: −log10 of the molar value. Read-outs that look alike come from different tables or passages of the source.

Key:
[1] = system: A. baumannii (CCUG #57250); experiment: Antibacterial activity against isolates (Omnilog, Biolog redox dye); type: cell-based, Acinetobacter baumannii; settings: for EC90 / pEC50: ca-MH broth, 24 h, 37 °C; for pEC50: CCUG57250; for Selectivity index A. baumannii (CCUG #57250): SI = ((EC50 MCF-7 + EC50 HepG2)/2)/EC50 bacterial strain
Protocol: (§1) The antibacterial activities of eight compounds (1, 3, 4, 6, 8, 10, 16, and 17) were tested against 10 different isolates of Gram-negative bacteria from human and other sources, two E. coli (CCUG #67180 and CCUG #17620/ATCC #25922, control strain), two K. pneumoniae (CCUG #58547 and CCUG #225T), two P. aeruginosa (CCUG #17619 and CCUG #59347), two A. baumannii (CCUG #57035 and CCUG #57250), E. cloacae (CCUG #6323T), and E. hormaechei (CCUG #58962) in a 96-well plate format. The compounds to test were 3-fold diluted in six steps in cation-adjusted Mueller-Hinton (ca-MH) broth to final concentrations spanning from 30 to 0.12 µM, i.e., a 1667–416,667 times dilution from the 50 mM stocks. Bacterial mass from the ten isolates grown overnight on horse blood or Mueller–Hinton agar plates was suspended in ca-MH and adjusted to a final inoculum cell density of ~5 × 10^5 CFU/mL. For all assays, Biolog redox dye A diluted 100× from the stock solution was used for measurements of all ten isolates (up to a total volume of 120 µL per well). All plates included one well per isolate with only inoculum and dye but no test compound (i.e., positive control) and one well per isolate with inoculum, dye and DMSO diluted 1667×, corresponding to the DMSO concentration in the wells with the highest concentration of test compound. All measurements were performed using the Omnilog microplate reader (Biolog, Hayward, CA, USA) where the 96-well plates were read at 15 min intervals for a total of 24 h at 37 °C.

[2] = system: P. aeruginosa (CCUG #59347); experiment: as above; type: cell-based, Pseudomonas aeruginosa; settings: for pEC50 / EC90: Pseudomonas aeruginosa, CCUG59347, ca-MH broth, 24 h, 37 °C; for Selectivity index P. aeruginosa (CCUG #59347): SI = ((EC50 MCF-7 + EC50 HepG2)/2)/EC50 bacterial strain
Protocol: as §1, with “The compounds to test were 3-fold diluted in six steps in cation-adjusted Mueller-Hinton (ca-MH) broth to final concentrations spanning from 30 to 0.12 µM, i.e., a 1667–416,667 times dilution from the 50 mM stocks.” left out

[3] = Cytotoxicity assay (PrestoBlue) HepG2; type: cell-based; settings: human, HepG2 cells (hepatoma cell line), 24 h incubation
Protocol: (§2) The cytotoxicity levels of all compounds were evaluated against human Michigan Cancer Foundation-7 (MCF-7) and Hepatoma G2 cell line (HepG2) cell lines. MCF-7 is an extensively characterized breast cancer cell line isolated in 1970 [41], while HepG2 cells were derived from a hepatoma in 1975 [42]. Both cell lines grow robustly during in vitro culture and have been widely used for cytotoxicity testing. Cells of hepatic origin, such as HepG2, are of particular relevance for toxicity studies as many drugs accumulate in the liver during metabolic conversion. Cells were grown in Dulbecco’s Modified Eagle Medium supplemented with 10% fetal calf serum and kept in exponential growth, as previously reported. Before the assay, cells were reseeded into 96-well microtiter plates at a density allowing continued exponential growth and let to settle for 24 h. The compounds were added from a stock solution in DMSO, for a final concentration of 0.3% v/v of the solvent in the culture medium. After 24 h of incubation in presence of the compound, cell viability was assayed using PrestoBlue Cell Viability Reagent (resazurin-based solution, ThermoFisher, Waltham, MA, USA) according to the manufacturer’s instructions. […] Each assay contained a DMSO control at the equivalent starting concentration, positive control (uninhibited cell growth) and negative control (cell medium only). Survival was expressed as percentage of the solvent-only control. […] The Selectivity Index (SI) for each compound and bacterial strain was calculated as the ratio between the mean of the EC50 values for the two human cell lines and the EC50 for the bacterial strain in question ((EC50 MCF-7 + EC50 HepG2)/2)/EC50 bacterial strain).

[4] = system: P. caledonica (NBRC/ATCC #102488); experiment: Antibacterial resazurin assay, laboratory strain; settings: for pEC50 / EC90: Paraburkholderia caledonica, ATCC102488, 18 h; for pEC50: read-out: Pcal EC50; for EC90: read-out: Pcal EC90; for Selectivity index P. caledonica: mean of MCF-7 and HepG2 EC50 over bacterial EC50, laboratory strain
[5] = system: K. pneumoniae (CCUG #225T); experiment: Antibacterial activity against isolates (Omnilog, Biolog redox dye); type: cell-based, Klebsiella pneumoniae; settings: for pEC50 / EC90: Klebsiella pneumoniae, ca-MH broth, 24 h, 37 °C; for Selectivity index K. pneumoniae (CCUG #225T): SI = ((EC50 MCF-7 + EC50 HepG2)/2)/EC50 bacterial strain
Protocol: as §1

[6] = system: B. subtilis (NBRC/ATCC #111470); experiment: Antibacterial resazurin assay, laboratory strain; settings: for pEC50 / EC90: Bacillus subtilis, ATCC111470, 18 h; for pEC50: read-out: Bsu EC50; for EC90: read-out: Bsu EC90; for Selectivity index B. subtilis: mean of MCF-7 and HepG2 EC50 over bacterial EC50, laboratory strain
[7] = system: E. cloacae (CCUG #6323T); experiment: Antibacterial activity against isolates (Omnilog, Biolog redox dye); type: cell-based, Enterobacter cloacae; settings: for pEC50 / EC90: Enterobacter cloacae, ca-MH broth, 24 h, 37 °C; for Selectivity index E. cloacae (CCUG #6323T): SI = ((EC50 MCF-7 + EC50 HepG2)/2)/EC50 bacterial strain
Protocol: as §1

[8] = system: E. coli MG1655 (CGSC #6300); experiment: Antibacterial resazurin assay, laboratory strain; settings: for pEC50 / EC90: Escherichia coli, MG1655, 18 h; for pEC50: read-out: Eco EC50; for EC90: read-out: Eco EC90; for Selectivity index E. coli: mean of MCF-7 and HepG2 EC50 over bacterial EC50, laboratory strain
[9] = system: P. carotovorum (NBRC/ATCC #3380); experiment: Antibacterial resazurin assay, laboratory strain; settings: for EC90: read-out: Pcar EC90; for Selectivity index P. carotovorum: mean of MCF-7 and HepG2 EC50 over bacterial EC50, laboratory strain
[10] = Cytotoxicity assay (PrestoBlue) MCF-7; type: cell-based; settings: human, MCF-7 cells (breast cancer cell line), 24 h incubation
Protocol: as §2

[11] = Acinetobacter baumannii, CCUG57250, 24 h
[12] = Pectobacterium carotovorum, ATCC3380, 18 h, read-out: Pcar EC50, laboratory strain, 18 h, 37 °C, AlamarBlue
[13] = Pectobacterium carotovorum, ATCC3380, 18 h
[14] = read-out: Pcar EC50, laboratory strain, 18 h, 37 °C, AlamarBlue

Row | SMILES | EC90 [1, 11] | pEC50 ([1]; Acinetobacter baumannii) | pEC50 [2] | EC90 [2] | EC50 at 24 h [3] | pEC50 [4] | EC90 [4] | pEC50 [5] | EC90 [5] | pEC50 [6] | EC90 [6] | pEC50 [7] | EC90 [7] | Selectivity index E. cloacae (CCUG #6323T) [7] | pEC50 [8] | EC90 [8] | Selectivity index E. coli [8] | pEC50 [9, 12] | EC90 [9, 13] | Selectivity index P. carotovorum [9] | further results
1 | N=C(N)Nc1ccc(-c2ccc(-c3ccc(NC(=N)N)cc3Cl)o2)c(Cl)c1 [Compound 1, 2,5-Bis(2-chloro-4-guanidinophenyl)furan] | 6.6 µM | 5.36 | 5.28 | 7.4 µM | 43.4 µM | 4.69 | 136 µM | 5.57 | 3.2 µM | 4.60 | 136 µM | 6.00 | 1.2 µM | 37.2 | 4.19 | 148 µM | 0.6 | 4.17 | 115 µM | 0.6 | Selectivity index A. baumannii (CCUG #57250) [1]: 8.7; Selectivity index P. aeruginosa (CCUG #59347) [2]: 7.3; Selectivity index P. caledonica [4]: 1.9; Selectivity index K. pneumoniae (CCUG #225T) [5]: 14.4; Selectivity index B. subtilis [6]: 1.5; EC50 at 24 h [10]: 34.4 µM
2 | N=C(N)Nc1ccc(-c2ccc(-c3ccc(NC(=N)N)cc3)o2)cc1 [Compound 3] | 2.4 µM | 5.77 | 5.28 | 8.1 µM | 185 µM | 5.35 | 18.9 µM | 5.55 | 3.1 µM | 4.95 | 22.5 µM | 5.82 | 2.5 µM | 83.1 | 4.09 | 174 µM | 1.5 | 4.46 | 79 µM | 3.6 | EC90 [1]: 2.3 µM; Selectivity index P. aeruginosa (CCUG #59347) [2]: 24.1; Selectivity index P. caledonica [4]: 27.4; Selectivity index K. pneumoniae (CCUG #225T) [5]: 45.2; Selectivity index B. subtilis [6]: 11.1; EC50 at 24 h [10]: 64.5 µM
3 | Cc1cc(NC(=N)N)ccc1-c1ccc(-c2ccc(NC(=N)N)cc2C)o1 [Compound 4, 2,5-Bis(4-guanidino-2-methylphenyl)furan] | 22.5 µM | 4.80 | 4.18 | 77 µM | 51.3 µM | 5.09 | 51.9 µM | 4.82 | 22.7 µM | 5.21 | 8.5 µM | 5.43 | 7.4 µM | 20.7 | 4.31 | 80.8 µM | 1.5 | ~4.55 | 37.3 µM | 2.6 | Selectivity index A. baumannii (CCUG #57250) [1]: 4.8; Selectivity index P. aeruginosa (CCUG #59347) [2]: 1.1; Selectivity index P. caledonica [4]: 9.2; Selectivity index K. pneumoniae (CCUG #225T) [5]: 4.9; Selectivity index B. subtilis [6]: 12.2; pEC50 [9, 14]: 4.54; EC50 at 24 h [10]: > 100 µM
4 | COc1cc(NC(=N)N)ccc1-c1ccc(-c2ccc(NC(=N)N)cc2OC)o1 [Compound 6, 2,5-Bis(4-guanidino-2-methoxyphenyl)furan] | 8.8 µM | 5.12 | 4.26 | 65.3 µM | 213 µM | 4.59 | 35.6 µM | 4.99 | 12.7 µM | < 3.52 | > 300 µM | 5.28 | 8.4 µM | 27.4 | 4.45 | 76.3 µM | 4.0 | ~4.55 | 45 µM | 5.1 | Selectivity index A. baumannii (CCUG #57250) [1]: 19.0; Selectivity index P. aeruginosa (CCUG #59347) [2]: 2.6; Selectivity index P. caledonica [4]: 5.6; Selectivity index K. pneumoniae (CCUG #225T) [5]: 14.0; pEC50 [9, 14]: 4.55; EC50 at 24 h [10]: 74.7 µM
5 | COC(=O)c1cc(NC(=N)N)ccc1-c1ccc(-c2ccc(NC(=N)N)cc2C(=O)OC)o1 [Compound 8, 2,5-Bis(4-guanidino-2-(methylcarboxy)phenyl)furan] | 5.1 µM | 5.36 | < 3.70 | > 200 µM | 405 µM | < 3.52 | > 300 µM | 5.25 | 7.9 µM | 4.65 | 43.6 µM | 5.32 | 7.1 µM | 50.8 | 4.02 | 129 µM | 2.5 | 3.85 | 158 µM | 1.7 | Selectivity index A. baumannii (CCUG #57250) [1]: 55.3; Selectivity index K. pneumoniae (CCUG #225T) [5]: 43.3; Selectivity index B. subtilis [6]: 10.8; EC50 at 24 h [10]: 81.6 µM
6 | N=C(N)NCc1ccc(-c2ccc(-c3ccc(CNC(=N)N)cc3)o2)cc1 [Compound 10, 2,5-Bis(4-guanidinomethylphenyl)furan] | > 200 µM | < 3.70 | < 3.70 | > 200 µM | 137 µM | 5.54 | 5 µM | < 3.70 | > 200 µM | < 3.52 | > 300 µM | 4.91 | 24.7 µM | 7.5 | 4.14 | 108 µM | 1.3 | 4.36 | 61.2 µM | 2.1 | Selectivity index P. caledonica [4]: 31.8; EC50 at 24 h [10]: 48.6 µM
